# Experiments:
# Pseudomonas Fluorescens [1] = conditions: well water, 72° F.
# Method: The biocidal activity of THPS/oxidizing breaker compositions against Pseudomonas Fluorescens was examined. In the first experiment, 2 L of well water was inoculated with 4 mL of a Nutrient Broth containing live Pseudomonas f. and stirred using an overhead mixer at 2000 rpm. After thorough mixing, and with the mixer running, 150 mL samples were taken with a syringe and inserted into separate bottles. The first and last bottles were left without biocide or breaker to act as controls. The remaining samples were treated with varying concentrations of biocide and oxidizing breakers.
# Biocidal activity analysis was completed using a […]® PhotonMaster™ luminometer and Quench-Gone™ Organic Modified (QGO-M) ATP test kit. At the initial time (Time 0), both control samples were tested using the ATP kit. All samples were then left at ambient lab temperature (72° F.). All samples (20 mL each) were then tested using the ATP kit at one hour and at 24 hours.
# Pseudomonas Fluorescens [2] = assay type: cell-based; conditions: breaker 1.0 gpt added to 0.25 gpt biocide; 1% KCl water pH 7.7, 77° F., 1 h and 5 h
# Method: 500 mL of 1% KCl water, buffered with sodium bicarbonate to pH 7.7 was inoculated with 10 mL of a Nutrient Broth containing live Pseudomonas f. and blended on a Waring lab blender at 2000 rpm for 5 minutes. After blending, it was separated into 30 mL samples in separate bottles. The first and last bottles were left without biocide or breaker to act as controls. The remaining samples were treated with varying concentrations of biocide and oxidizing breakers.
# Biocidal activity analysis was completed using a […]® PhotonMaster™ luminometer and Quench-Gone™ Organic Modified (QGO-M) ATP test kit. At the initial time (Time 0), both control samples were tested using the ATP kit. All samples were then incubated at 77° F. All samples (5 mL) were then tested using the ATP kit at one hour and again at 5 hours.
Molecule,"compatibility of biocidal activity with oxidizing breakers (ATP analysis) (Pseudomonas Fluorescens [1]; THPS 20% 0.25 or 0.50 gpt with sodium persulfate, hydrogen peroxide 7% or sodium chlorite 8%, 1 h and 24 h)","effect of addition of the breakers on biocidal properties (ATP analysis) (Pseudomonas Fluorescens [1]; THPS concentration of 0.25 gpt, 1 h and 24 h (FIG. 5))",effect of added breaker on decrease in microbial activity (ATP analysis) (Pseudomonas Fluorescens [2])
tetrakis(hydroxymethyl)phosphonium sulphate [THPS],no apparent incompatibility,appears to enhance or accelerate the biocidal properties,
"OO [hydrogen peroxide 7%, hydrogen peroxide]",,,may be accelerated or enhanced slightly
sodium chlorite [sodium chlorite 8%],,,may be accelerated or enhanced slightly
